Test results taken from patent US20110152313A1 (MACQUARIE UNIVERSITY, priority 2008, published 2011).
pIC50, pKd: −log10 of the molar value. Each block holds one compound with its values, some of them ahead of it.

Assays:
[1] = molecular target: T1, CDK5/p25 (Homo sapiens, UniProt Q00535); assay: protein kinase activity assay ([γ-32P] ATP, histone H1); type: biochemical; conditions: 15 μM ATP, 30° C.; tested up to 100 μM; read-out: IC50 CDK5/p25
T1 construct: made in house
Experimental: Buffer A: 10 mM MgCl2, 1 mM EGTA, 1 mM DTT, 25 mM Tris-HCl pH 7.5, 50 μg heparin/mL. Buffer C: 60 mM β-glycerophosphate, 15 mM p-nitrophenylphosphate, 25 mM Mops (pH 7.2), 5 mM EGTA, 15 mM MgCl2, 1 mM DTT, 1 mM sodium vanadate, 1 mM phenyl phosphate.
Anticancer activity is commonly associated with the inhibition of kinase enzymes. […] Blank values are subtracted and activities expressed as percent of the maximal activity, i.e. in the absence of inhibitors (Table 4). Controls were performed with appropriate dilutions of DMSO, which was used to dissolve all test compounds.
CDK1/cyclin B (native M phase starfish oocytes), and CDK5/p25 (recombinant human) can be prepared according to the prior art (Meijer, L.; Thunnissen, A. M. W. H.; White, A. W.; Gamier, M.; Nikolic, M., et al. Chem. Biol. 2000, 7, 51-63). […] ATP (3,000 Ci/mmol, 10 mCi/mL) in a final volume of 30 μL. After 30 min. incubation at 30° C., 25 μL aliquots of supernatant are spotted onto 2.5×3 cm pieces of Whatman P81 phosphocellulose paper and, 20 s later, the filters are washed five times (for at least 5 min. each time) in a solution of 10 mL phosphoric acid/L of water. The wet filters are then counted in the presence of 1 mL ACS (Amersham) scintillation fluid.

[2] = molecular target: T2, ULK1 (Homo sapiens, UniProt O75385); assay: kinase binding constant, 11-point dose response (T7 phage, qPCR); conditions: >30 = no inhibition at highest concentration tested
T2 sequence (O75385 1-1050): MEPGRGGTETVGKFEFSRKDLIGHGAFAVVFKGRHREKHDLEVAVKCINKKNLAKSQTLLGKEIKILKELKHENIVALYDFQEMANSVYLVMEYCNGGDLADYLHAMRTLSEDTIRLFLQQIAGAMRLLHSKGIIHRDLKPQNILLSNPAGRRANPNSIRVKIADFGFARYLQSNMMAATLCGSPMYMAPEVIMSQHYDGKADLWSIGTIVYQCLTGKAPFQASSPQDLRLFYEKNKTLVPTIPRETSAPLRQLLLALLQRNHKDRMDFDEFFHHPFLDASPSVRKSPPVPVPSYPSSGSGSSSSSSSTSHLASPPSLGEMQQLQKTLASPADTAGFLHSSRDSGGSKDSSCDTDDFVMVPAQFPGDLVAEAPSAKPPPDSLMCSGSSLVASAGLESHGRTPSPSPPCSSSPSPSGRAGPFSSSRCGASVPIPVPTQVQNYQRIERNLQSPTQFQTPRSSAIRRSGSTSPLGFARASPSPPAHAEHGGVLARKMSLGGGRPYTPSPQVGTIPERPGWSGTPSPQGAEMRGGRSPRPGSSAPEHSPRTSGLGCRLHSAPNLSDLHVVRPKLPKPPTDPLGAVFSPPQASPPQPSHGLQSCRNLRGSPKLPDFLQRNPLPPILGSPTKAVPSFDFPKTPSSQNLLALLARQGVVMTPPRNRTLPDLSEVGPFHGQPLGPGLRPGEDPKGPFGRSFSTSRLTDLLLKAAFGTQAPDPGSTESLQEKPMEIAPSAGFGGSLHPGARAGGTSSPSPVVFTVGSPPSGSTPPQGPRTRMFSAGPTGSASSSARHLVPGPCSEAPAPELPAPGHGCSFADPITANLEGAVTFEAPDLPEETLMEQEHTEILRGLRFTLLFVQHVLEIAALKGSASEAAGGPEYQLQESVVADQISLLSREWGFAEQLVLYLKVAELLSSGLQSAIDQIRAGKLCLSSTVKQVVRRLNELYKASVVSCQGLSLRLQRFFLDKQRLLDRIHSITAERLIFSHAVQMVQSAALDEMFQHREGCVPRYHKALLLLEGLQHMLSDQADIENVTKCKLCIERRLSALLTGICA
Experimental: (§1) Kinase inhibition studies were performed by methods well known in the prior art (Fabian, M. A. et al. Nat. Biotechnol. 2005, 23, 329). Briefly, kinase-tagged T7 phage strains were prepared in an E. coli host derived from the BL21 strain. E. coli were grown to log-phase and infected with T7 phage and incubated with shaking at 32° C. until lysis. The lysates were centrifuged and filtered to remove cell debris. […] The liganded beads were blocked with excess biotin and washed with blocking buffer (SeaBlock (Pierce); 1% BSA, 0.05% Tween 20, 1 mM DTT) to remove unbound ligand and to reduce non-specific binding. […] All reactions were performed in polystyrene 96-well plates in a final volume of 0.135 ml. […] The kinase concentration in the eluates was measured by qPCR.
(§2) An 11-point 3-fold serial dilution of each test compound (from 30 μM to 0.5 nM) was prepared in 100% DMSO at 100× final test concentration and subsequently diluted to 1× in the assay (final DMSO concentration=1%). Binding constants (KDS) were calculated with a standard dose-response curve using a 5-point sigmoidal (Hill) equation.

[3] = molecular target: CAMKK2 (Homo sapiens, UniProt Q96RR4); assay: as above; conditions: >30 = no inhibition at highest concentration tested
Sequence of CAMKK2 (Q96RR4 whole entry): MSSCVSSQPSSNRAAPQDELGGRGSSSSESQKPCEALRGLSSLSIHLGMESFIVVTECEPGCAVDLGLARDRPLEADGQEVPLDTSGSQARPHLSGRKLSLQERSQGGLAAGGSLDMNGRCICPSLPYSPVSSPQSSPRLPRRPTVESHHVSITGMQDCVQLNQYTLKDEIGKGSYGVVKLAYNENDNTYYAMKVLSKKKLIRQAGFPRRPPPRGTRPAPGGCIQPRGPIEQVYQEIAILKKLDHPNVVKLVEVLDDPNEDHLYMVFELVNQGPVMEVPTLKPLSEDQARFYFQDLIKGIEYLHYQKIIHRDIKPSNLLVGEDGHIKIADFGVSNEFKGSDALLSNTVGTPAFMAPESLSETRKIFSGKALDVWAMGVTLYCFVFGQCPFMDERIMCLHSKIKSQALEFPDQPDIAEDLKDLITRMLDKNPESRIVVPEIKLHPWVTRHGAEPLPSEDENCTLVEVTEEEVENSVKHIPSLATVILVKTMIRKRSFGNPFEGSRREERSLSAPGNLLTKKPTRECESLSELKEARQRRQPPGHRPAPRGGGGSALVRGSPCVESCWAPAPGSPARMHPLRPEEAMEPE
Experimental: as §1, §2

[4] = molecular target: CLK2 (Homo sapiens, UniProt P49760); assay: as above; conditions: >30 = no inhibition at highest concentration tested
Sequence of CLK2 (P49760 whole entry): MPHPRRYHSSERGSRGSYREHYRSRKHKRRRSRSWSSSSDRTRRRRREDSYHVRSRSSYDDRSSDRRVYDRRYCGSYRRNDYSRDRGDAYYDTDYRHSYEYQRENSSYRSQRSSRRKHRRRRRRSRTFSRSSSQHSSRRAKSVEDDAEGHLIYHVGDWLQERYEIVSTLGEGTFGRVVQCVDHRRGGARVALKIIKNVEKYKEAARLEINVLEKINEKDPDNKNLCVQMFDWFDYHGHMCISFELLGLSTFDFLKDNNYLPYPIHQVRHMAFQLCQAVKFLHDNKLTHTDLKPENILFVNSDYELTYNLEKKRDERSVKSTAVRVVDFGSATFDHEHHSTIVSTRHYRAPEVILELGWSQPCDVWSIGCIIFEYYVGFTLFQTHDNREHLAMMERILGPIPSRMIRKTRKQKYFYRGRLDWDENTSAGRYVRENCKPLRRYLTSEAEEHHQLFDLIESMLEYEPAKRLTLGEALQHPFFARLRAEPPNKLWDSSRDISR
Experimental: as §1, §2

[5] = molecular target: T3, TYK2 (Homo sapiens, UniProt P29597); assay: as above; conditions: >30 = no inhibition at highest concentration tested
T3 construct: TYK2(JH2domain-pseudokinase)
T3 sequence (P29597 whole entry): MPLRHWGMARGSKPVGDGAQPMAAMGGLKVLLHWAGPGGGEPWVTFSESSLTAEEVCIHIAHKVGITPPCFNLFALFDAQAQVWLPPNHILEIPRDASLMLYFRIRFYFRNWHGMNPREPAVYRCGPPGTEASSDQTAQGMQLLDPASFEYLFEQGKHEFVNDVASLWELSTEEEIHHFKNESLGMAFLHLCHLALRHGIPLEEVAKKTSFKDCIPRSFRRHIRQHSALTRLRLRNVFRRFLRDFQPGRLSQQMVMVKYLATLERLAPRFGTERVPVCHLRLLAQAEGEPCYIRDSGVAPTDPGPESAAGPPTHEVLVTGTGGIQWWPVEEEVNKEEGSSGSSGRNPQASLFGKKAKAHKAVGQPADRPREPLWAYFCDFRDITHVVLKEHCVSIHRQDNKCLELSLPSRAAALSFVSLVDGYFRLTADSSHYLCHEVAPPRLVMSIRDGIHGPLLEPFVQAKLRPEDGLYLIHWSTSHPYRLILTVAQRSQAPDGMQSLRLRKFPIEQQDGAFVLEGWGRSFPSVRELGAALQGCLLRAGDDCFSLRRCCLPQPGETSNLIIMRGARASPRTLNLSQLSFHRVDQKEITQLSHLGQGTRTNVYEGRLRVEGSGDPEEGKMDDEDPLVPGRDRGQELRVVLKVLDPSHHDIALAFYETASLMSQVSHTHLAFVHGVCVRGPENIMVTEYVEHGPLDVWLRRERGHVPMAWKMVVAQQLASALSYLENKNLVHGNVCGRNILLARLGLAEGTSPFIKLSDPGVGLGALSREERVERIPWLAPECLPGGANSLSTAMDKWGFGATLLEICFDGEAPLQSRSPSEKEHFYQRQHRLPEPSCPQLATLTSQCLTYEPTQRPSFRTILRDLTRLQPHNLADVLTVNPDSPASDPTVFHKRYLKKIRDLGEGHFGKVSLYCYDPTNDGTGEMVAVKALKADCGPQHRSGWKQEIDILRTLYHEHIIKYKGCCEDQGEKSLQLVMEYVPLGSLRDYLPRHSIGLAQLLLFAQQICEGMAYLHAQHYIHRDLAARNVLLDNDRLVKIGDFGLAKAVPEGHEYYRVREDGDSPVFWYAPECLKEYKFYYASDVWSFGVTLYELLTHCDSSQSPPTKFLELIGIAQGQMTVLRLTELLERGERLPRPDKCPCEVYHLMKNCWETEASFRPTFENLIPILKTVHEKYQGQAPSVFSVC
Experimental: as §1, §2

T1 sequence (Q00535 whole entry): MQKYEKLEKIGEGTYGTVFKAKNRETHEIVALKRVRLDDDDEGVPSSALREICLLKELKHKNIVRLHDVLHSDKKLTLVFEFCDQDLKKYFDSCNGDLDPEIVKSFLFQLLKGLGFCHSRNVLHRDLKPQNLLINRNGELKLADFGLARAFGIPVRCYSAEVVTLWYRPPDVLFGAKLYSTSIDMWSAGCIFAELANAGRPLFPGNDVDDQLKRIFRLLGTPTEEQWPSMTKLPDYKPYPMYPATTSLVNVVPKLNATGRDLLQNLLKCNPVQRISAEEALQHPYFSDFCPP
T1 sequence (Q15078 99-307 partner limits assumed): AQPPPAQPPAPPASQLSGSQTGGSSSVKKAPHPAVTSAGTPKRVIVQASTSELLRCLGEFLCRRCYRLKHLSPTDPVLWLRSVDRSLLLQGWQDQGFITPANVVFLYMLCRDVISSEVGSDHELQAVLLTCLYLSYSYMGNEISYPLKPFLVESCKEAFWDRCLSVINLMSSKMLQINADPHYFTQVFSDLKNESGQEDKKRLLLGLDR

- pIC50 [1]: < 4.00
SMILES: Nc1nc2c(-c3cc(Br)c(Br)[nH]3)nccc2[nH]1 [Ageladine A, ageladine A, reference compound]

SMILES: Nc1nc2c(-c3ccccn3)nccc2[nH]1 [drawing 35, 4-(pyrid-2-yl)-1H-imidazo[4,5-c]pyridin-2-amine]
- pKd [2]: 4.62
- pKd [3]: < 4.52

SMILES: Nc1nc2c(-c3cnc4ccccc4c3)nccc2[nH]1 [drawing 36, 4-(quinolin-3-yl)-1H-imidazo[4,5-c]pyridin-2-amine]
- pKd [4]: 5.92
- pKd [5]: 6.54
